Reference: patent publication US20230263822A1, “MODULATION OF FACTOR 11 EXPRESSION” (Ionis Pharmaceuticals, Inc., priority 2008, published 2023)
“Also recorded” adds a separate entry of the source. Where two headings read alike, the source gives them in different places.

What was measured:
[1] = tested on: murine Factor 11 mRNA; assay: Time course of Factor 11 mRNA reduction in liver after one dose (Example 29); assay type: in vivo; conditions: BALB/c mice, one s.c. dose of 50 mg/kg, 12 hours to 56 days
Method: (§1) One dose of 50 mg/kg ISIS 404071 was administered subcutaneously to BALB/c mice. Following ISIS 404071 administration, mice were sacrificed at 12 hours, 1 day, 2 days, 3 days, 4 days, 7 days, 14 days, 28 days, and 56 days. Whole liver was collected for RNA analysis and PPP was collected for aPTT analysis. A control group of mice was treated with one subcutaneous dose of PBS.
RNA was extracted from liver tissue for real-time PCR analysis of Factor 11. Results are presented relative to PBS control. […] Mice began regaining Factor 11 mRNA expression by day 14.

[2] = tested on: blood coagulation; assay: Time course of aPTT after one dose (Example 29); assay type: in vivo, BALB/c mice; conditions: for aPTT INR: values approximate
Method: as §1
aPTT values provided in Table 43 are reported as International Normalized Ratio (INR) values. INR values for aPTT were determined by dividing the aPTT value for ISIS 404071 treated mice by the aPTT for the PBS treated group. This ratio was then raised to the power of the International Sensitivity Index (ISI) of the tissue factor used.

[3] = Collagenase-induced intracerebral hemorrhage model: hemorrhage volume, neurologic deficit score, mortality (Example 25); assay type: in vivo, BALB/c mice
Method: In a first cohort, ISIS 404071 was administered subcutaneously to BALB/c mice twice a week for two weeks at a dose 40 mg/kg. […] In a third cohort, ISIS 421208 ([…], 8 mismatches to murine Factor 11, incorporated herein as SEQ ID NO: 14) was administered subcutaneously to BALB/c mice twice a week for two weeks at a dose 40 mg/kg. In a fourth cohort, PBS was administered to BALB/c mice twice a week for two weeks.
Two days after receiving their final dose, all mice in all cohorts were anesthetized with […] of avertin. Next, the mice were injected at −1 mm AP, 1 mm R ML, −4 mm DV from bregma flat skull with a 10 μL Hamilton syringe containing 0.075 U collagenase (150 U/mL). Collagenase was delivered over 5 minutes and the needle was kept in place for an additional 5 minutes to prevent reflux. The mice were then analyzed for hemorrhagic size, neurologic deficit score, and mortality.
Table 37 presents the hemorrhage volume detected in mice after collagenase treatment, Table 38 presents the neurologic deficit score of the mice, and Table 39 presents the mortality rate of the mice. Neurological deficit is measured by a standard scoring system where no deficiency is zero and severe deficit is five.

[4] = tested on: blood coagulation; assay: Ex vivo PT and aPTT in murine plasma, ISIS 404071 with LOVENOX (Example 16); set-up: species or system BALB/c mice; conditions: for PT INR in murine plasma / aPTT INR in murine plasma: LOVENOX 0
Method: A control mouse group was treated with PBS, administered twice a week for 3 weeks. Five days after the last dose, the mice were sacrificed and plasma was collected. The low-molecular-weight (LMW) heparin, LOVENOX, was administered to the plasma ex vivo at varying concentrations of 0 μg/ml, 2.5 μg/ml, 5.0 μg/ml, and 7.5 μg/ml. PT and aPTT were measured 20 minutes after LOVENOX was administered.

[5] = set-up: species or system BALB/c mice; conditions: mouse, in vivo; for Blood (tail bleeding, collected over 40 minutes): sc
Method: ISIS 404071 and Apixaban were evaluated in the tail bleeding model.
The saline filled tubes were weighed before and after bleeding.

[6] = tested on: blood coagulation; assay: PT and aPTT assay in platelet poor plasma (Example 10); assay type: in vivo; conditions: BALB/c mice
Method: BALB/c mice were injected with 5 mg/kg, 10 mg/kg, 25 mg/kg, or 50 mg/kg of ISIS 404057 or ISIS 404071 twice a week for 3 weeks. A control group of mice was injected with phosphate buffered saline (PBS) twice a week for 3 weeks. Mice were sacrificed 5 days after receiving the last dose. Whole liver was harvested for RNA analysis and plasma was collected for clotting analysis (PT and aPTT) and protein analysis.
Prothrombin Time (PT) and Activated Partial Thromboplastin Time (aPTT) were measured using platelet poor plasma (PPP) from mice treated with ISIS 404057 and ISIS 404071. PT and aPTT values provided in Table 18 are reported as International Normalized Ratio (INR) values. INR values for PT and aPTT were determined by dividing the PT or aPTT value for each experimental group (i.e. 5 mg/kg, 10 mg/kg, 25 mg/kg, and 50 mg/kg treatment with ISIS 404057 or ISIS 404071) by the PT or aPTT for the PBS treated group. This ratio was then raised to the power of the International Sensitivity Index (ISI) of the tissue factor used.

[7] = collagenase-induced intracerebral hemorrhage, 40 mg/kg twice a week for two weeks
[8] = ISIS 404071 10 mg/kg s.c. twice a week for 3 weeks
[9] = ISIS 404071 20 mg/kg s.c. twice a week for 3 weeks
[10] = ISIS 404071 40 mg/kg s.c. twice a week for 3 weeks
[11] = murine plasma, ISIS 404071 10-40 mg/kg in vivo, LOVENOX 0-7.5 μg/ml ex vivo
[12] = 5 mg/kg twice a week for 3 weeks
[13] = 10 mg/kg twice a week for 3 weeks
[14] = 25 mg/kg twice a week for 3 weeks
[15] = 50 mg/kg twice a week for 3 weeks
[16] = 5-50 mg/kg twice a week for 3 weeks

In the case of “ISIS 404071: antisense oligonucleotide targeted to murine Factor 11 mRNA, TGGTAATCCACTTTCAGAGG, target start site 869 (chemistry not given here)”, the “Factor 11 mRNA expression in liver over time” value [1] is reported as “significant Factor 11 mRNA down-regulation by day 1; also recorded: regained full Factor 11 mRNA expression by day 28; also recorded: did not experience a rebound effect”, the “aPTT over time” value ([2]; BALB/c mice, one s.c. dose of 50 mg/kg) is reported as “progressive decrease of aPTT until day 4 and then progressive increase to pre-treatment levels from day 7 to day 28” and the “aPTT INR” value ([2]; day 1 after one dose of 50 mg/kg s.c.) is reported as ~1.02 INR. The “aPTT INR” value ([2]; day 2 after one dose of 50 mg/kg s.c.) was ~1.12 INR, the “aPTT INR” value ([2]; day 3 after one dose of 50 mg/kg s.c.) was ~1.29 INR and the “aPTT INR” value ([2]; day 4 after one dose of 50 mg/kg s.c.) was ~1.30 INR. The “aPTT INR” value ([2]; day 7 after one dose of 50 mg/kg s.c.) was ~1.25 INR, the “aPTT INR” value ([2]; day 14 after one dose of 50 mg/kg s.c.) was ~1.11 INR and the “aPTT INR” value ([2]; day 28 after one dose of 50 mg/kg s.c.) was ~1.02 INR. For the same substance, the “Hemorrhagic volume after collagenase treatment” value ([3]; 40 mg/kg s.c. twice a week for two weeks) was 38 mm^3, the “Neurologic Deficit Score after collagenase treatment” value ([3]; 40 mg/kg s.c. twice a week for two weeks, score zero (no deficiency) to five (severe deficit)) was 3.8 and the “% mortality after collagenase treatment” value ([3]; ISIS oligonucleotides 40 mg/kg s.c., warfarin 2 mg/kg intraperitoneally, twice a week for two weeks) was 20%. For the same substance, the “hemorrhagic size” value [3, 7] was “did not have a significant effect”, the “mortality” value [3, 7] was “did not have a significant effect” and the “neurologic deficit score” value [3, 7] was “did not have a significant effect”. For the same substance, the “PT INR in murine plasma” value [4, 8] was 0.97 INR, the “aPTT INR in murine plasma” value [4, 8] was 1.14 INR and the “PT INR in murine plasma” value [4, 9] was 1.00 INR. For the same substance, the “aPTT INR in murine plasma” value [4, 9] was 1.28 INR, the “PT INR in murine plasma” value [4, 10] was 0.97 INR and the “aPTT INR in murine plasma” value [4, 10] was 1.52 INR. The “PT” value [4, 11] was “does not significantly increase PT”, the “aPTT” value [4, 11] was “also increases aPTT in a dose-dependent manner” and the “bleeding in tail bleeding assay” value [5] was “did not affect bleeding”. The “Blood (tail bleeding, collected over 40 minutes)” value ([5]; 1.25 mg/kg) was 0.00 g, the “Blood (tail bleeding, collected over 40 minutes)” value ([5]; 5 mg/kg) was 0.00 g and the “Blood (tail bleeding, collected over 40 minutes)” value ([5]; 10 mg/kg) was 0.04 g. For the same substance, the “Blood (tail bleeding, collected over 40 minutes)” value ([5]; 25 mg/kg) was 0.01 g, the “Blood (tail bleeding, collected over 40 minutes)” value ([5]; 50 mg/kg) was 0.01 g and the “PT INR” value [6, 12] was 1.06. For the same substance, the “aPTT INR” value [6, 12] was 1.09, the “PT INR” value [6, 13] was 1.08 and the “aPTT INR” value [6, 13] was 1.13. For the same substance, the “PT INR” value [6, 14] was 1.06, the “aPTT INR” value [6, 14] was 1.35 and the “PT INR” value [6, 15] was 1.02. The “aPTT INR” value [6, 15] was 2.08, the “PT” value [6, 16] was “not significantly prolonged” and the “aPTT” value [6, 16] was “prolonged in a dose-dependent manner”.
